In patent US9850283B2, “Macrocyclic inhibitors of the PD-1/PD-L1 and CD80(B7-1)/PD-L1 protein/protein interactions” (BRISTOL-MYERS SQUIBB COMPANY, priority 2013, dated 2017) one finds IC50 data, which are given here for 13 compounds.

Positions of bridges follow the written chain, without caps; N, C: chain ends. Non-standard residues stand in square brackets, D forms with d. Residues, ends and D or L forms follow the SMILES beside them. Phe(4-guanidino) = N=C(N)Nc1ccc(C[C@H](N)C(=O)O)cc1; Phe(3-CF3) = N[C@@H](Cc1cccc(C(F)(F)F)c1)C(=O)O; Phe(4-CONH2) = NC(=O)c1ccc(C[C@H](N)C(=O)O)cc1; Phe(4-tBu) = CC(C)(C)c1ccc(C[C@H](N)C(=O)O)cc1; Phe(3,5-F2) = N[C@@H](Cc1cc(F)cc(F)c1)C(=O)O; Phe(4-CH2NH2) = NCc1ccc(C[C@H](N)C(=O)O)cc1; Phe(4-CN) = N#Cc1ccc(C[C@H](N)C(=O)O)cc1; Phe(4-Cl) = N[C@@H](Cc1ccc(Cl)cc1)C(=O)O; Phe(4-F) = N[C@@H](Cc1ccc(F)cc1)C(=O)O; Hyp = O=C(O)[C@@H]1C[C@@H](O)CN1; NMeNle = CCCC[C@H](NC)C(=O)O; NMeA = CN[C@@H](C)C(=O)O; Dap = NC[C@H](N)C(=O)O

The target of assay [1] is T1, LK35.2-hPD-L1 cells / PE-labeled PD-1-Ig (Homo sapiens, UniProt Q9NZQ7).
T1 construct: expressed in transfected cells; host or cells: LK35.2 mouse B cell line
T1 sequence (Q9NZQ7 19-290): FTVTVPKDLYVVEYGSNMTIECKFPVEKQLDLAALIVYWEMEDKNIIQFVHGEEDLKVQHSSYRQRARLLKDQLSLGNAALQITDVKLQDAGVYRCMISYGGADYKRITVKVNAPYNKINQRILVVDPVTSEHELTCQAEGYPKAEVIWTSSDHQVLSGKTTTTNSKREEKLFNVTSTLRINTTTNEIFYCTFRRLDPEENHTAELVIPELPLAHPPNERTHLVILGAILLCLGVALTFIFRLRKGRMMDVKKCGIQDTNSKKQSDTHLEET
Nature of the assay: LK35.2-hPD-L1 cell binding high-content screening assay. The class given is cell-based. The following applies: cell binding assay, cell line not given; cluster symbol; read-out: CBA IC50 cluster. In outline: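 Fluorescent PD-1-Ig binding to PD-L1-expressing LK35.2 cells, imaged after washing. Conditions: 1 nM PE-PD-1-Ig, 37 °C, 1 h, RPMI with 10% fetal calf serum.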

The target of assay [2] is T2, Human PD-L1/PD-1 (Homo sapiens, UniProt Q9NZQ7).
T2 construct: made in house; host or cells: HEK293T
T2 sequence (Q9NZQ7 with tags, fused parts or gaps): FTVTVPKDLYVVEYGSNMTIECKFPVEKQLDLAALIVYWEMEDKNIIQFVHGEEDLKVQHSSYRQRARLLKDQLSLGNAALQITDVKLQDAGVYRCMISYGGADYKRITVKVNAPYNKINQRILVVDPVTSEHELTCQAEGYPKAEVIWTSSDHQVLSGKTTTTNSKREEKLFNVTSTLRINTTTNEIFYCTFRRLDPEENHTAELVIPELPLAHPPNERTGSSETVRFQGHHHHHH
Nature of the assay: HTRF PD-1-Ig/PD-L1-His binding assay (human PD-L1). The following applies: cluster symbol; read-out: HTRF IC50 cluster. A digest of the protocol: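 HTRF read-out: Eu cryptate anti-Ig mAb 1 nM final, APC anti-His mAb 20 nM final, added over the binding reaction. Proteins were PD-1-Ig and PD-L1-His ectodomain fusions. Buffer was dPBS, 0.1% BSA, 0.05% Tween-20.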
(In TR-FRET formats the signal depends on donor and acceptor labels being close together.)

By IC50 is commonly meant the concentration that gives 50% inhibition. With `CCCC[C@H]1C(=O)N(C)[C@@H](CCCC)C(=O)N[C@@H](CCCNC(=N)N)C(=O)N[C@H](C(=O)NCC(N)=O)CSCC(=O)N[C@@H](Cc2ccc(CN)cc2)C(=O)N(C)[C@@H](C)C(=O)N[C@@H](CC(N)=O)C(=O)N2CCC[C@H]2C(=O)N[C@@H](CN)C(=O)N[C@@H](CC(C)C)C(=O)N2C[C@H](O)C[C@H]2C(=O)N[C@@H](Cc2c[nH]c3ccccc23)C(=O)N[C@@H](CO)C(=O)N[C@@H](Cc2c[nH]c3ccccc23)C(=O)N1C` [Example 7042] ({CH2CO}-[Phe(4-CH2NH2)][NMeA]NP[Dap]L[Hyp]WSW[NMeNle][NMeNle]RCG-NH2; thioether N-14), the IC50 in assay [1] lay in the range of 4.78 to 72.9 nM; in assay [2], 6.76 to 30.3 nM.
As for `CCCC[C@H]1C(=O)N(C)[C@@H](CCCC)C(=O)N[C@@H](CCCNC(=N)N)C(=O)N[C@H](C(=O)NCC(N)=O)CSCC(=O)N[C@@H](Cc2cc(F)cc(F)c2)C(=O)N(C)[C@@H](C)C(=O)N[C@@H](CC(N)=O)C(=O)N2CCC[C@H]2C(=O)N[C@@H](CN)C(=O)N[C@@H](CC(C)C)C(=O)N2C[C@H](O)C[C@H]2C(=O)N[C@@H](Cc2c[nH]c3ccccc23)C(=O)N[C@@H](CO)C(=O)N[C@@H](Cc2c[nH]c3ccccc23)C(=O)N1C` [Example 7043] ({CH2CO}-[Phe(3,5-F2)][NMeA]NP[Dap]L[Hyp]WSW[NMeNle][NMeNle]RCG-NH2; thioether N-14), the IC50 in assay [1] was 4.78 to 72.9 nM; in assay [2] it was 6.76 to 30.3 nM.
Take `CCCC[C@H]1C(=O)N(C)[C@@H](CCCC)C(=O)N[C@@H](CCCNC(=N)N)C(=O)N[C@H](C(=O)NCC(N)=O)CSCC(=O)N[C@@H](Cc2ccc(Cl)cc2)C(=O)N(C)[C@@H](C)C(=O)N[C@@H](CC(N)=O)C(=O)N2CCC[C@H]2C(=O)N[C@@H](CN)C(=O)N[C@@H](CC(C)C)C(=O)N2C[C@H](O)C[C@H]2C(=O)N[C@@H](Cc2c[nH]c3ccccc23)C(=O)N[C@@H](CO)C(=O)N[C@@H](Cc2c[nH]c3ccccc23)C(=O)N1C` [Example 7044] ({CH2CO}-[Phe(4-Cl)][NMeA]NP[Dap]L[Hyp]WSW[NMeNle][NMeNle]RCG-NH2; thioether N-14): the concentration for half-maximal inhibition (IC50) in assay [1] fell in the range of 4.78 to 72.9 nM; in assay [2], 0.385 to 6.74 nM.
For `CCCC[C@H]1C(=O)N(C)[C@@H](CCCC)C(=O)N[C@@H](CCCNC(=N)N)C(=O)N[C@H](C(=O)NCC(N)=O)CSCC(=O)N[C@@H](Cc2ccc(C(C)(C)C)cc2)C(=O)N(C)[C@@H](C)C(=O)N[C@@H](CC(N)=O)C(=O)N2CCC[C@H]2C(=O)N[C@@H](Cc2cnc[nH]2)C(=O)N[C@@H](CC(C)C)C(=O)N2C[C@H](O)C[C@H]2C(=O)N[C@@H](Cc2c[nH]c3ccccc23)C(=O)N[C@@H](CO)C(=O)N[C@@H](Cc2c[nH]c3ccccc23)C(=O)N1C` [Example 7045] ({CH2CO}-[Phe(4-tBu)][NMeA]NPHL[Hyp]WSW[NMeNle][NMeNle]RCG-NH2; thioether N-14), in that order: over 74.3 nM and over 30.5 nM.
The like results for `CCCC[C@H]1C(=O)N(C)[C@@H](CCCC)C(=O)N[C@@H](CCCNC(=N)N)C(=O)N[C@H](C(=O)NCC(N)=O)CSCC(=O)N[C@@H](Cc2ccc(C#N)cc2)C(=O)N(C)[C@@H](C)C(=O)N[C@@H](CC(N)=O)C(=O)N2CCC[C@H]2C(=O)N[C@@H](Cc2cnc[nH]2)C(=O)N[C@@H](CC(C)C)C(=O)N2C[C@H](O)C[C@H]2C(=O)N[C@@H](Cc2c[nH]c3ccccc23)C(=O)N[C@@H](CO)C(=O)N[C@@H](Cc2c[nH]c3ccccc23)C(=O)N1C` [Example 7046] ({CH2CO}-[Phe(4-CN)][NMeA]NPHL[Hyp]WSW[NMeNle][NMeNle]RCG-NH2; thioether N-14) were, in that order, 0.158 to 4.71 nM and 0.385 to 6.74 nM.
Take `CCCC[C@H]1C(=O)N(C)[C@@H](CCCC)C(=O)N[C@@H](CCCNC(=N)N)C(=O)N[C@H](C(=O)NCC(N)=O)CSCC(=O)N[C@@H](Cc2ccc(F)cc2)C(=O)N(C)[C@@H](C)C(=O)N[C@@H](CC(N)=O)C(=O)N2CCC[C@H]2C(=O)N[C@@H](Cc2cnc[nH]2)C(=O)N[C@@H](CC(C)C)C(=O)N2C[C@H](O)C[C@H]2C(=O)N[C@@H](Cc2c[nH]c3ccccc23)C(=O)N[C@@H](CO)C(=O)N[C@@H](Cc2c[nH]c3ccccc23)C(=O)N1C` [Example 7047] ({CH2CO}-[Phe(4-F)][NMeA]NPHL[Hyp]WSW[NMeNle][NMeNle]RCG-NH2; thioether N-14): the IC50 is 4.78 to 72.9 nM in assay [1] and 0.385 to 6.74 nM in assay [2].
`CCCC[C@H]1C(=O)N(C)[C@@H](CCCC)C(=O)N[C@@H](CCCNC(=N)N)C(=O)N[C@H](C(=O)NCC(N)=O)CSCC(=O)N[C@@H](Cc2ccc(F)cc2)C(=O)N(C)[C@@H](C)C(=O)N[C@@H](CC(N)=O)C(=O)N2CCC[C@H]2C(=O)N[C@@H](CN)C(=O)N[C@@H](CC(C)C)C(=O)N2C[C@H](O)C[C@H]2C(=O)N[C@@H](Cc2c[nH]c3ccccc23)C(=O)N[C@@H](CO)C(=O)N[C@@H](Cc2c[nH]c3ccccc23)C(=O)N1C` [Example 7048] ({CH2CO}-[Phe(4-F)][NMeA]NP[Dap]L[Hyp]WSW[NMeNle][NMeNle]RCG-NH2; thioether N-14): the IC50 was over 74.3 nM in assay [1] and 0.385 to 6.74 nM in assay [2].
In the case of `CCCC[C@H]1C(=O)N(C)[C@@H](CCCC)C(=O)N[C@@H](CCCNC(=N)N)C(=O)N[C@H](C(=O)NCC(N)=O)CSCC(=O)N[C@@H](Cc2ccc(N=C(N)N)cc2)C(=O)N(C)[C@@H](C)C(=O)N[C@@H](CC(N)=O)C(=O)N2CCC[C@H]2C(=O)N[C@@H](Cc2cnc[nH]2)C(=O)N[C@@H](CC(C)C)C(=O)N2C[C@H](O)C[C@H]2C(=O)N[C@@H](Cc2c[nH]c3ccccc23)C(=O)N[C@@H](CO)C(=O)N[C@@H](Cc2c[nH]c3ccccc23)C(=O)N1C` [Example 7049] ({CH2CO}-[Phe(4-guanidino)][NMeA]NPHL[Hyp]WSW[NMeNle][NMeNle]RCG-NH2; thioether N-14), the values for the IC50 in assay [1] and in assay [2] were over 74.3 nM and over 30.5 nM, respectively.
The like results for `CCCC[C@H]1C(=O)N(C)[C@@H](CCCC)C(=O)N[C@@H](CCCNC(=N)N)C(=O)N[C@H](C(=O)NCC(N)=O)CSCC(=O)N[C@@H](Cc2ccc(C(N)=O)cc2)C(=O)N(C)[C@@H](C)C(=O)N[C@@H](CC(N)=O)C(=O)N2CCC[C@H]2C(=O)N[C@@H](Cc2cnc[nH]2)C(=O)N[C@@H](CC(C)C)C(=O)N2C[C@H](O)C[C@H]2C(=O)N[C@@H](Cc2c[nH]c3ccccc23)C(=O)N[C@@H](CO)C(=O)N[C@@H](Cc2c[nH]c3ccccc23)C(=O)N1C` [Example 7050] ({CH2CO}-[Phe(4-CONH2)][NMeA]NPHL[Hyp]WSW[NMeNle][NMeNle]RCG-NH2; thioether N-14) were, in that order, 4.78 to 72.9 nM and 0.385 to 6.74 nM.
In the case of `CCCC[C@H]1C(=O)N(C)[C@@H](CCCC)C(=O)N[C@@H](CCCNC(=N)N)C(=O)N[C@H](C(=O)NCC(N)=O)CSCC(=O)N[C@@H](Cc2cc(F)cc(F)c2)C(=O)N(C)[C@@H](C)C(=O)N[C@@H](CC(N)=O)C(=O)N2CCC[C@H]2C(=O)N[C@@H](Cc2cnc[nH]2)C(=O)N[C@@H](CC(C)C)C(=O)N2C[C@H](O)C[C@H]2C(=O)N[C@@H](Cc2c[nH]c3ccccc23)C(=O)N[C@@H](CO)C(=O)N[C@@H](Cc2c[nH]c3ccccc23)C(=O)N1C` [Example 7051] ({CH2CO}-[Phe(3,5-F2)][NMeA]NPHL[Hyp]WSW[NMeNle][NMeNle]RCG-NH2; thioether N-14), the IC50 in assay [1] lay within 4.78 to 72.9 nM; in assay [2], 6.76 to 30.3 nM.
As for `CCCC[C@H]1C(=O)N(C)[C@@H](CCCC)C(=O)N[C@@H](CCCNC(=N)N)C(=O)N[C@H](C(=O)NCC(N)=O)CSCC(=O)N[C@@H](Cc2ccc(CN)cc2)C(=O)N(C)[C@@H](C)C(=O)N[C@@H](CC(N)=O)C(=O)N2CCC[C@H]2C(=O)N[C@@H](Cc2cnc[nH]2)C(=O)N[C@@H](CC(C)C)C(=O)N2C[C@H](O)C[C@H]2C(=O)N[C@@H](Cc2c[nH]c3ccccc23)C(=O)N[C@@H](CO)C(=O)N[C@@H](Cc2c[nH]c3ccccc23)C(=O)N1C` [Example 7053] ({CH2CO}-[Phe(4-CH2NH2)][NMeA]NPHL[Hyp]WSW[NMeNle][NMeNle]RCG-NH2; thioether N-14), the IC50 in assay [1] lay within 4.78 to 72.9 nM; in assay [2] it was 6.76 to 30.3 nM.
In the case of `CCCC[C@H]1C(=O)N(C)[C@@H](CCCC)C(=O)N[C@@H](CCCNC(=N)N)C(=O)N[C@H](C(=O)NCC(N)=O)CSCC(=O)N[C@@H](Cc2ccc(Cl)cc2)C(=O)N(C)[C@@H](C)C(=O)N[C@@H](CC(N)=O)C(=O)N2CCC[C@H]2C(=O)N[C@@H](Cc2cnc[nH]2)C(=O)N[C@@H](CC(C)C)C(=O)N2C[C@H](O)C[C@H]2C(=O)N[C@@H](Cc2c[nH]c3ccccc23)C(=O)N[C@@H](CO)C(=O)N[C@@H](Cc2c[nH]c3ccccc23)C(=O)N1C` [Example 7054] ({CH2CO}-[Phe(4-Cl)][NMeA]NPHL[Hyp]WSW[NMeNle][NMeNle]RCG-NH2; thioether N-14), the values for the IC50 in assay [1] and in assay [2] were 0.158 to 4.71 nM and 0.385 to 6.74 nM, respectively.
Regarding `CCCC[C@H]1C(=O)N(C)[C@@H](CCCC)C(=O)N[C@@H](CCCNC(=N)N)C(=O)N[C@H](C(=O)NCC(N)=O)CSCC(=O)N[C@@H](Cc2cccc(C(F)(F)F)c2)C(=O)N(C)[C@@H](C)C(=O)N[C@@H](CC(N)=O)C(=O)N2CCC[C@H]2C(=O)N[C@@H](Cc2cnc[nH]2)C(=O)N[C@@H](CC(C)C)C(=O)N2C[C@H](O)C[C@H]2C(=O)N[C@@H](Cc2c[nH]c3ccccc23)C(=O)N[C@@H](CO)C(=O)N[C@@H](Cc2c[nH]c3ccccc23)C(=O)N1C` [Example 7056] ({CH2CO}-[Phe(3-CF3)][NMeA]NPHL[Hyp]WSW[NMeNle][NMeNle]RCG-NH2; thioether N-14), the IC50 in assay [1] was over 74.3 nM; in assay [2] it was 6.76 to 30.3 nM.
